The values below are quoted from earlier work in US10703699B2, “Solubilization of pterostilbene and resveratrol for aqueous beverages” (Ironstone Separations, Inc., priority 2013, dated 2020).

The conditions of data set [1]: animal studies.

One may read the bioavailability as dose-corrected exposure relative to a reference, in per cent. With “trans-3,5-dimethoxy-4-hydroxystilbene [Pterostilbene]”, the “Solubility in aqueous media” value is listed as “very low”. Also, the bioavailability in data set [1] is on record as 80%.

As for `Oc1ccc(/C=C/c2cc(O)cc(O)c2)cc1` [Resveratrol, 3,5,4′-trihydroxy-trans-stilbene], the bioavailability in data set [1] was 20%.
